Assay results reported in patent US4925868A, “4-Hydroxy-3-pyrrolin-2-ones and treatment of circulatory disorders therewith” (Takeda Chemical Industries, Ltd., priority 1986, dated 1990).

Experiments:
[1] = tested on: lipid peroxide formation in rat brain tissue homogenate; test: Activity to inhibit lipid peroxide formation in rat brain tissue homogenate (TBA method); format: biochemical, rat (male SD); conditions: 10^-5 M; n = 3, mean; 5% brain homogenate, pH 7.4, 37° C., 1 hour
Method: Activity to inhibit lipid peroxide formation in rat brain tissue homogenate: Male SD rats (12-week-old) were subjected to exsanguination under anesthesia with pentobarbital, then the brain was excised. The brain tissue was homogenized in a phosphate buffer (pH 7.4) to prepare a 5% homogenate. After incubation of the homogenate at 37° C. for 1 hour, the amount of lipid peroxides formed therein was determined by the thiobarbituric acid (TBA) method in accordance with the report of Ohkawa et al. on Analytical Biochemistry, 95, 351, (1979). The test drug was added to the 5% homogenate before incubation so as to make the final concentration to be 10^-5 M. The activity to inhibit the formation of lipid peroxide was judged by comparing the amount of the lipid peroxide in the treated group with that of the reference group to which was added the solvent (DMSO), and shown by % inhibition.

mice = test: Acute toxicity in mice; format: in vivo; conditions: for sedation and ptosis: six mice per group
Method: Male Crj-ICR mice (4-week-old, 21 to 26 g) were used. The animals, divided into groups, each consisting of six mice, were administered orally with compounds (4-b, 4-1) at the dosages of 300 and 1000 mg/kg, respectively. Then, each group was housed in a cage and observed for 24 hours.
The test drugs were suspended in gum arabic and administered at a volume of 0.1 ml/10 g.

rat hearts = test: Activity to inhibit occurrence of ventricular arrhythmia during coronary artery occlusion-reperfusion in rat hearts; format: in vivo, rat (male SD); design: Ventricular fibrillation, incidence / Ventricular tachycardia, incidence: unit not given here; conditions: for Ventricular fibrillation, incidence / Ventricular tachycardia, incidence: (10 min.) after reperfusion; for Ventricular fibrillation, incidence / Ventricular tachycardia, incidence / Ventricular fibrillation, duration / Ventricular tachycardia, duration: average ±SEM; for Mortality: killed animals/test animals; for mortality due to VF (in words) / occurrence of arrhythmia (in words) / period of time during which arrhythmia lasted (in words) / frequency of occasional PVCs (in words): 10 mg/kg; for frequency of occasional PVCs (in words): vs vehicle around 10 times/minute; for effect on arrhythmia (in words): oral
Text: Activity to inhibit occurrence of ventricular arrhythmia during coronary artery occlusion-reperfusion in rat hearts
Male SD rats (9- to 13-week old, 250 to 370 g) were used. The animals were subjected to thoractonomy under artificial respiration while anesthesia was maintained by administering pentobarbital. […] By recording standard limb lead II electrocardiograms, occurrence of ventricular arrhythmia was examined. […]
Incidences of ventricular fibrillation and ventricular tachycardia are shown by the percentage of the number of animals presenting the symptoms relative to the number of animals subjected to the test, and the duration of the symptoms was shown by average ±SEM in seconds. Extrasystole is shown by the number of systole/min., and the mortality is shown by the percentage of the number of killed animals relative to the number of test animals.

**Q.** With CCCCCCCCCCCCCCOc1ccc(C2=C(O)CN(C)C2=O)cc1 [Compound 4-a] as the compound, how does the “Inhibition rate of lipid peroxide formation” value (“Inhibition rate” for short) [1] read?
**A.** 97.9%

**Q.** Which results are given for CCCCCCCCCCCCOc1ccc(C2=C(O)CN(C)C2=O)cc1 [Compound 4-b, N-methyl-3-(4-dodecyloxyphenyl)-4-hydroxy-3-pyrrolin-2-one]?
**A.** Inhibition rate of lipid peroxide formation [1]: 97.9%; time to recovery from sedation and ptosis (mice; oral, 300 and 1000 mg/kg): ≤ 3 h; deaths (mice; oral, 300 and 1000 mg/kg, 24-hour observation): no test animals of either group were killed; sedation and ptosis (mice; oral, 300 and 1000 mg/kg): observed on half number of the test animals

**Q.** How did the “Inhibition rate” value [1] turn out when CCCCCCCCCCCCOc1ccc(C2=C(O)CN(CC(C)C)C2=O)cc1 [Compound 4-c] was run?
**A.** 100%

**Q.** With CCCCCCCCCCCCOc1ccc(C2=C(O)CN(CCCCCCCCCCCC)C2=O)cc1 [Compound 4-d] as the compound, how does the “Inhibition rate” value [1] read?
**A.** 100%

**Q.** With CCCCCCCCCCCCOc1ccc(C2=C(O)CN(c3ccccc3)C2=O)cc1 [Compound 4-e] as the compound, how does the “Inhibition rate” value [1] read?
**A.** 100%

**Q.** For CCCCCCCCCCCCOc1ccc(C2=C(O)CN(Cc3ccccc3)C2=O)cc1 [Compound 4-f], which “Inhibition rate” value [1] is on record?
**A.** 75.5%

**Q.** For CCCCCCCCCCCCOc1ccc(C2=C(O)CN(CCc3ccccc3)C2=O)cc1 [Compound 4-g], which “Inhibition rate” value [1] is on record?
**A.** 100%

**Q.** With CCCCCCCCCCCCOc1ccc(C2=C(O)CN(CCCc3ccccc3)C2=O)cc1 [Compound 4-h] as the compound, how does the “Inhibition rate” value [1] read?
**A.** 100%

**Q.** For CCCCCCCCCCCCOc1ccc(C2=C(O)CN(Cc3ccsc3)C2=O)cc1 [Compound 4-i], which “Inhibition rate” value [1] is on record?
**A.** 89.4%

**Q.** For CCCCCCCCCCCCOc1ccc(C2=C(O)CN(Cc3ccc(C(=O)OC)cc3)C2=O)cc1 [Compound 4-j], which “Inhibition rate” value [1] is on record?
**A.** 52.8%

**Q.** CCCCCCCCCCCCOc1ccc(C2=C(O)CN(Cc3ccc(C(=O)O)cc3)C2=O)cc1 [Compound 4-k] was tested. Which “Inhibition rate” value [1] did it give?
**A.** 63.8%

**Q.** What does the source list for CCCCCCCCCCCCOc1ccc(C2=C(O)CN(Cc3cc(OC)c(OC)c(OC)c3)C2=O)cc1 [Compound 4-l]?
**A.** Inhibition rate of lipid peroxide formation [1]: 96.7%; Extrasystole (rat hearts; 3 mg/Kg): 5.4 ± 1.1 times/min.; Ventricular fibrillation, incidence (rat hearts; 3 mg/Kg): 0.8 ± 0.4; Ventricular tachycardia, incidence (rat hearts; 3 mg/Kg): 3.5 ± 0.8; Ventricular fibrillation, duration (rat hearts; 3 mg/Kg): 1.7 ± 1.2 s; Ventricular tachycardia, duration (rat hearts; 3 mg/Kg): 7.1 ± 2.2 s; Mortality (rat hearts; 3 mg/Kg): 0/8; mortality due to VF (in words) (rat hearts): low; occurrence of arrhythmia (in words) (rat hearts): suppressed remarkably; period of time during which arrhythmia lasted (in words) (rat hearts): shortened; frequency of occasional PVCs (in words) (rat hearts): significantly less; deaths (mice; mouse, in vivo): no test animals of either group were killed; time to recovery from sedation and ptosis (mice; oral, 300 and 1000 mg/kg): ≤ 3 h; sedation and ptosis (mice; oral, 300 and 1000 mg/kg): observed on half number of the test animals

**Q.** How did the “Inhibition rate” value [1] turn out when CCCCCCCCCCCCOc1ccc(C2=C(O)CN(Cc3c(C)c(OC)c(C)c(C)c3OC)C2=O)cc1 [Compound 4-m] was run?
**A.** 100%

**Q.** How did the “Inhibition rate” value [1] turn out when CCCCCCCCCCCCOc1ccc(C2=C(O)CN(Cc3ccc(Cl)cc3)C2=O)cc1 [Compound 4-n] was run?
**A.** 100%

**Q.** CCCCCCCCCCCCCCCCCCOC1=C(O)CN(Cc2cc(OC)c(OC)c(OC)c2)C1=O [Compound 4-p] was tested. Which Extrasystole (rat hearts; 10 mg/Kg) did it give?
**A.** 3.3 ± 0.7 times/min.

**Q.** What about the “Ventricular fibrillation, incidence” value (rat hearts; 10 mg/Kg) of the same compound?
**A.** 0.9 ± 0.3

**Q.** And the “Ventricular tachycardia, incidence” value (rat hearts; 10 mg/Kg)?
**A.** 4.1 ± 1.2

**Q.** What about the “Ventricular fibrillation, duration” value (rat hearts; 10 mg/Kg) of the same compound?
**A.** 2.1 ± 1.3 s

**Q.** What about the “Ventricular tachycardia, duration” value (rat hearts; 10 mg/Kg) of the same compound?
**A.** 7.3 ± 2.4 s

**Q.** What about the Mortality (rat hearts; 10 mg/Kg) of the same compound?
**A.** 0/9

**Q.** And the “mortality due to VF (in words)” value (rat hearts)?
**A.** low

**Q.** What about the “occurrence of arrhythmia (in words)” value (rat hearts) of the same compound?
**A.** suppressed remarkably

**Q.** What about the “period of time during which arrhythmia lasted (in words)” value (rat hearts) of the same compound?
**A.** shortened

**Q.** And the “frequency of occasional PVCs (in words)” value (rat hearts)?
**A.** significantly less

**Q.** What does the source list for O=C1O[C@H]([C@@H](O)CO)C(O)=C1O [Vitamin C, reference compound]?
**A.** Inhibition rate of lipid peroxide formation [1]: -71.6%; Extrasystole (rat hearts; 50 mg/kg): 11.0 ± 0.8 times/min.; Ventricular fibrillation, incidence (rat hearts; 50 mg/kg): 5.4 ± 0.8; Ventricular tachycardia, incidence (rat hearts; 50 mg/kg): 9.5 ± 1.8; Ventricular fibrillation, duration (rat hearts; 50 mg/kg): 74.1 ± 36.0 s; Ventricular tachycardia, duration (rat hearts; 50 mg/kg): 12.0 ± 2.9 s; Mortality (rat hearts; 50 mg/kg): 1/12; effect on arrhythmia (in words) (rat hearts; 50 mg/kg): no significant effect

**Q.** Vitamin E [reference compound] was tested. Which “Inhibition rate” value [1] did it give?
**A.** 44.9%

**Q.** And the Extrasystole (rat hearts; 50 mg/kg)?
**A.** 7.0 ± 4.1 times/min.

**Q.** What about the “Ventricular fibrillation, incidence” value (rat hearts; 50 mg/kg) of the same compound?
**A.** 2.0 ± 0.7

**Q.** What about the “Ventricular tachycardia, incidence” value (rat hearts; 50 mg/kg) of the same compound?
**A.** 3.7 ± 1.5

**Q.** And the “Ventricular fibrillation, duration” value (rat hearts; 50 mg/kg)?
**A.** 43.4 ± 36.0 s

**Q.** And the “Ventricular tachycardia, duration” value (rat hearts; 50 mg/kg)?
**A.** 22.3 ± 9.7 s

**Q.** What about the Mortality (rat hearts; 50 mg/kg) of the same compound?
**A.** 1/10

**Q.** What about the “effect on arrhythmia (in words)” value (rat hearts; 50 mg/kg) of the same compound?
**A.** no significant effect
